Laboratory results: patent US7754772B2, “Nitrosated nonsteroidal antiinflammatory compounds, compositions and methods of use” (NicOx, S.A., priority 2002, dated 2010)

Legend:
[1] = tested on: Male Sprague Dawley rats, gastric hemorrhagic lesion; conditions: rat, in vivo, po
Procedure: Male Sprague Dawley rats (Charles River Laboratories, Wilmington, Mass.) weighing 230-250 g were used for the experiments. The rats were housed with laboratory chow and water ad libitum prior to the study. The rats were fasted for 24 hours with free access to water and then dosed by oral gavage with vehicle or with test compounds given at a volume of 0.5 mL/100 g. […] Rats were euthanized by CO2 three hours after dosing. The stomachs were dissected along the greater curvature, washed with a directed stream of 0.9% saline and pinned open on a sylgard based petri dish for examination of the hemorrhagic lesion. Gastric lesion score was expressed in mm and calculated by summing the length of each lesion.

[2] = tested on: Male Sprague-Dawley rats, carrageenan paw edema; test: rat paw edema test (carrageenan), antiinflammatory activity; format: in vivo
Procedure: The rat paw edema test was used to measure the antiinflammatory activity. The rat paw edema test was performed according to the method of Winter et al, Proc. Soc. […] Male Sprague-Dawley rats (250-275 g) were fasted overnight and dosed by oral gavage with vehicle or suspensions of compound one hour prior to the subplantar injection of 50 μl of 1% suspension of carrageenan. Three hours later, the paw volume was measured and compared with the initial volume measured immediately after carrageenan injection.

[3] = oral gavage one hour prior to subplantar carrageenan, paw volume three hours later, expressed as ratio (Vehicle = 1)

SMILES | Relative Activity Gastric Lesion [1] | Relative Activity Antiinflammation ([2]; in vivo, po) | Relative Activity Antiinflammation [2, 3]
COc1ccc2cc([C@H](C)C(=O)OCC(=O)N3CCN(CCO[N+](=O)[O-])CC3)ccc2c1.Cl [Example 37, 2-(4-(2-(Nitrooxy)ethyl)piperazinyl)-2-oxoethyl (2S)-2-(6-methoxy(2-naphthyl))propanoate hydrogen chloride] | 0.72 | 0.56 | –
COc1ccc2cc([C@H](C)C(=O)Oc3ccccc3C(=O)OCCO[N+](=O)[O-])ccc2c1 [Example 33] | 0.07 | – | 0.60
COc1ccc2cc([C@H](C)C(=O)OC[C@H](CO[N+](=O)[O-])O[N+](=O)[O-])ccc2c1 [Example 5] | 0.21 | 0.45 | –
COc1ccc2cc(C(C)C(=O)OCCN(CCO[N+](=O)[O-])c3ccc([N+](=O)[O-])cc3)ccc2c1 (stereo not drawn) [Example 4, 2-((2-(Nitrooxy)ethyl)4-nitrophenyl)amino)ethyl 2-(6-methoxy-2-naphthyl) propanoate] | 0.04 | – | 0.92
COc1ccc2cc([C@H](C)C(=O)OCC(=O)N3CCC(CCO[N+](=O)[O-])CC3)ccc2c1 [Example 31, 2-(4-(2-(nitrooxy)ethyl)piperidyl)-2-oxoethyl (2S)-2-(6-methoxy(2-naphthyl))propanoate] | 0.06 | – | 0.61
COc1ccc2cc([C@H](C)C(=O)OCC(=O)N3CCC(CO[N+](=O)[O-])CC3)ccc2c1 [Example 19, 2-(4-((Nitrooxy)methyl)piperidyl)-2-oxoethyl (2S)-2-(6-methoxy(2-naphthyl))propanoate] | 0.30 | – | 0.60
